In patent publication US5614548A, “Quaternary amine containing ether or ester lipid derivatives and therapeutic compositions” (priority 1994, dated 1997):

Tests used:
HIV-1 [1] = assay: HIV-1 plaque assay, inhibitor added 30 minutes before infection; format: cell-based, human immunodeficiency virus type 1 (HIV-1); settings: vs HSV-2, in words
Outline: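 Syncytial plaque assay with compound added 30 min before HIV-1 infection, using dextran sulfate as positive control. Plaques (multicellular foci of 10–25 nuclei) counted 5 days post-infection. Inhibition expressed as % versus untreated controls.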

extracellular HIV-1 = assay: Direct inactivation of extracellular HIV-1 infectivity; format: cell-based, human immunodeficiency virus type 1 (HIV-1)
Protocol: Since ether lipid (EL) analogs are membrane interactive, see, e.g. , A. Noseda et al., Biochim. Biophys. Acta 945, 92 (1988), we determined whether Compound E could directly inactivate extracellular HIV-1 infectivity. About 350 plaque forming units of HIV-1 were mixed with antiviral concentrations (2.0 μM) of E or with control medium alone in a total volume of 100 μl. After three hours of incubation at 37° C., the virus compound and virus medium mixtures were diluted 20-fold to reduce the concentration of Compound E below a significant antiviral concentration. Aliquots (100 μl) of the diluted HIV-1 were added to CEM-SS cell monolayers to measure residual virus infectivity by plaque count. A mean of 22 plaques (N=2) were counted for Compound E-treated HIV-1 and a mean of 27 plaques (N=2) for medium-treated HIV-1.

[2] = tested on: herpes simplex virus type 2 (HSV-2); assay: HSV-2 plaque formation in Vero cell monolayers; format: cell-based; settings: 2 μM, in words
HIV-1 [3] = assay: Infectious HIV-1 multiplication (plaque forming units); format: cell-based, human immunodeficiency virus type 1 (HIV-1); settings: in words
Protocol: (§1) In brief, CEM-SS cells were infected with HIV-1. At various times after infection (3, 6, 8, 10, 13 days) the overlay fluids were replaced with fresh medium. Overlay fluids replaced on days 8, 10 and 13 were saved at -80° C. to measure HIV-1 plaque forming units according to our described protocol above and RT activity (described by Poiesz et al., Proc. Natl. Acad. Sci. U.S.A. 77, 7415 (1980). Results are given in Table 8 below.

reverse transcriptase = assay: Reverse transcriptase activity in HIV-1 infected CEM-SS cells; format: cell-based, human immunodeficiency virus type 1 (HIV-1); settings: in words
Protocol: By way of further background, in our assay HIV-1 syncytial plaques are seen as large, multicellular foci (10 to 25 nuclei/syncytium) that appear either brown and granular or clear. Since the number of HIV-1 syncytial plaques correlates with reverse transcriptase (RT) and p24 core antigen activity in the HIV-1 infected cell overlay fluids, the syncytial plaque assay can be used to quantify the amount of infectious virus. Reverse transcriptase activity was assayed according to a described procedure (B. J. Poeisz et al., Proc. Natl. Acad. Sci. (U.S.A.) […], 7415 (1980)). The activity of p24 core antigen induced by HIV-1 infection of CEM-SS cells was measured spectrophotometrically using the commercial Abbott EIA.
as §1

extracellular HSV-2 = assay: Direct inactivation of extracellular HSV-2 infectivity; format: cell-based, herpes simplex virus type 2 (HSV-2); settings: 2 μM, in words

## CCCCCCCCCCCCCCCCSCC(C[N+](C)(C)CCO)OC.[I-] (racemic) [Compound 12, (±)-3-hexadecylthio-2-methoxy-N,N-dimethyl-N-β-hydroxyethyl-1-propyl ammonium iodide]
HIV-1 [1]
  selectivity against HIV-1 plaque formation: selective inhibitory activity against HIV-1 plaque formation
Extracellular HIV-1; 2.0 μM, in words
  inactivation of extracellular HIV-1 infectivity: does not inactivate extracellular HIV-1 infectivity
Extracellular HIV-1; HIV-1 treated 2.0 μM, 3 hours, 37° C., diluted 20-fold, N=2 (medium: 27 plaques)
  mean residual plaques: 22 plaques
[2]
  inhibition of HSV-2 plaque formation: neither inhibits herpes simplex virus type 2 (HSV-2) plaque formation in Vero cell monolayers
HIV-1 [3]; 13 days
  infectious virus production: infectious virus production is still inhibited
HIV-1 [3]; between 8 and 10 days
  infectious virus production: markedly inhibit infectious virus production
Reverse transcriptase; 13 days
  reverse transcriptase activity: reverse transcriptase activity increases
Reverse transcriptase; between 8 and 10 days
  reverse transcriptase activity: markedly inhibit infectious virus production and reverse transcriptase activity in a dose-dependent manner
Extracellular HSV-2
  inactivation of extracellular HSV-2 infectivity: nor directly inactivates extracellular HSV-2 infectivity
